In ChEMBL document CHEMBL3769388, “Optimization of a Dicarboxylic Series for in Vivo Inhibition of Citrate Transport by the Solute Carrier 13 (SLC13) Family” (J Med Chem, 2016):
Active and inactive are the calls of the source. No cut-off for these calls is given here.

Key:
[1] = target: Na(+)/dicarboxylate cotransporter 3 (Homo sapiens, UniProt Q8WWT9); experiment: Inhibition of NaDC3 (unknown origin) expressed in HEK293 cells assessed as inhibition of [14C]citrate uptake by microbeta plate reader analysis; type: cell-based
[2] = Renal clearance in Wistar Han rat at 1 mg/kg, iv by LC-MS/MS analysis; type: ADME, organism-based, Kidney; details: in vivo
Rattus norvegicus = organism: Rattus norvegicus; experiment: Increase in […][13C]-citrate levels in rat plasma measured over 140 to 150 mins by UPLC-MS/MS analysis; type: functional, organism-based
Mus musculus = experiment: Increase in urinary calcium level in C57BL/6J mouse at 250 mg/kg, po measured after 7 hrs by UPLC-MS/MS analysis; type: functional, organism-based; details: Urine
[3] = target: cGMP-inhibited 3',5'-cyclic phosphodiesterase 3B (Homo sapiens) (UniProt Q13370); experiment: Inhibition of PDE3B (unknown origin)
[4] = target: Voltage-gated inwardly rectifying potassium channel KCNH2 (Homo sapiens, UniProt Q12809); experiment: Inhibition of human ERG
[5] = target: Histamine H1 receptor (Homo sapiens) (UniProt P35367); experiment: Inhibition of H1 (unknown origin)
[6] = target: Vascular endothelial growth factor receptor 2 (Homo sapiens) (UniProt P35968); experiment: Inhibition of VEGFR2 (unknown origin)
Sequence of Vascular endothelial growth factor receptor 2 (Homo sapiens) (P35968 whole entry): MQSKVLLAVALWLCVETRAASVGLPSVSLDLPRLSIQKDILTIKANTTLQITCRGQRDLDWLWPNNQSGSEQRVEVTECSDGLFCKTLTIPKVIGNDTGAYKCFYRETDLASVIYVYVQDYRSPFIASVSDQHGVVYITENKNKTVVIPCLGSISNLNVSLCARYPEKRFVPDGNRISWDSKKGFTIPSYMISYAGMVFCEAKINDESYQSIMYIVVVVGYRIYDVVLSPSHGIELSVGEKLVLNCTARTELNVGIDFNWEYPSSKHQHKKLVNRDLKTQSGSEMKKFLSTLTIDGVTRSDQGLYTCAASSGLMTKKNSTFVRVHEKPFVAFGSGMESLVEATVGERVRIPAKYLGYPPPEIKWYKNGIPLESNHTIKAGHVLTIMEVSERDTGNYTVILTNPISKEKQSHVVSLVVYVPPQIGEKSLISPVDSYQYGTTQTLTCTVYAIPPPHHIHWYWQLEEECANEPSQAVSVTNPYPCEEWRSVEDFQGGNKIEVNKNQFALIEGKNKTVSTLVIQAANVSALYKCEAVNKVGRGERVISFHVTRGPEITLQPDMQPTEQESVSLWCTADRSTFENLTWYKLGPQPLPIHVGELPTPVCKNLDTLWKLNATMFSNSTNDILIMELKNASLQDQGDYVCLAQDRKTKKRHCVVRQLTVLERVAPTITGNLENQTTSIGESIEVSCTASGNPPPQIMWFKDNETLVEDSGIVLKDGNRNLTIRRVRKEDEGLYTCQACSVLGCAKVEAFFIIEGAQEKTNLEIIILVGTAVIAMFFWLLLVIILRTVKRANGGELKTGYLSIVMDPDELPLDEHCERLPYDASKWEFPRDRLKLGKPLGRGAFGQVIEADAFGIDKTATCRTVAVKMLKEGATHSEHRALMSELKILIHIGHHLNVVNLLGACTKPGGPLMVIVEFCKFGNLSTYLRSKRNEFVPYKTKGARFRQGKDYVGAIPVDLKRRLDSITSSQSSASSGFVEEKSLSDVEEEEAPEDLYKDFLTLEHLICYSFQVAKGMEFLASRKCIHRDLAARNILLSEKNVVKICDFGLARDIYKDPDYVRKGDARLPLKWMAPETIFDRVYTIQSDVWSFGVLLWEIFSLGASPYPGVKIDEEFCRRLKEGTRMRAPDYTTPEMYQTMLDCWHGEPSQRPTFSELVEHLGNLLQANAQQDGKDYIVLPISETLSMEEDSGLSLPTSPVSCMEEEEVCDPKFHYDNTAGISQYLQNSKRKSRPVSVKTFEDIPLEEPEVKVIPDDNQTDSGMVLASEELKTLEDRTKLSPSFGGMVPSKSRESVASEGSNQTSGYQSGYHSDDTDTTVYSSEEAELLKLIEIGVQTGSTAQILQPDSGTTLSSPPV

Sequence of Na(+)/dicarboxylate cotransporter 3 (Q8WWT9 whole entry): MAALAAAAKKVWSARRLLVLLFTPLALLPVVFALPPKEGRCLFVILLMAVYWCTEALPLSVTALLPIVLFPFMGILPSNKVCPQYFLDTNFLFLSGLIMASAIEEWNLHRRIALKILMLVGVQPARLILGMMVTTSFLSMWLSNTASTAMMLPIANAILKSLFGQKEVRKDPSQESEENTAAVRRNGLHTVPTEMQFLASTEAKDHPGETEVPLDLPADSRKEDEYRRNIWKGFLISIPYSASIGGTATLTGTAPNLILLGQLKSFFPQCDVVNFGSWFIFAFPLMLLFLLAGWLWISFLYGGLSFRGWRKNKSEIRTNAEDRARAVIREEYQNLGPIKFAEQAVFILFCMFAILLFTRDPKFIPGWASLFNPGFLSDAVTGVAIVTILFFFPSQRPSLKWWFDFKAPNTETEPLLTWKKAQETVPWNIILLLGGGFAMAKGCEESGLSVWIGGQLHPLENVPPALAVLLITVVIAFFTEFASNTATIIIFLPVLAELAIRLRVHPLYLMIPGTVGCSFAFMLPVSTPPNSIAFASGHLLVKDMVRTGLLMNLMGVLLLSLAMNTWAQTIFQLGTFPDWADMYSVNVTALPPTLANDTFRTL
Sequence of Voltage-gated inwardly rectifying potassium channel KCNH2 (Q12809 whole entry): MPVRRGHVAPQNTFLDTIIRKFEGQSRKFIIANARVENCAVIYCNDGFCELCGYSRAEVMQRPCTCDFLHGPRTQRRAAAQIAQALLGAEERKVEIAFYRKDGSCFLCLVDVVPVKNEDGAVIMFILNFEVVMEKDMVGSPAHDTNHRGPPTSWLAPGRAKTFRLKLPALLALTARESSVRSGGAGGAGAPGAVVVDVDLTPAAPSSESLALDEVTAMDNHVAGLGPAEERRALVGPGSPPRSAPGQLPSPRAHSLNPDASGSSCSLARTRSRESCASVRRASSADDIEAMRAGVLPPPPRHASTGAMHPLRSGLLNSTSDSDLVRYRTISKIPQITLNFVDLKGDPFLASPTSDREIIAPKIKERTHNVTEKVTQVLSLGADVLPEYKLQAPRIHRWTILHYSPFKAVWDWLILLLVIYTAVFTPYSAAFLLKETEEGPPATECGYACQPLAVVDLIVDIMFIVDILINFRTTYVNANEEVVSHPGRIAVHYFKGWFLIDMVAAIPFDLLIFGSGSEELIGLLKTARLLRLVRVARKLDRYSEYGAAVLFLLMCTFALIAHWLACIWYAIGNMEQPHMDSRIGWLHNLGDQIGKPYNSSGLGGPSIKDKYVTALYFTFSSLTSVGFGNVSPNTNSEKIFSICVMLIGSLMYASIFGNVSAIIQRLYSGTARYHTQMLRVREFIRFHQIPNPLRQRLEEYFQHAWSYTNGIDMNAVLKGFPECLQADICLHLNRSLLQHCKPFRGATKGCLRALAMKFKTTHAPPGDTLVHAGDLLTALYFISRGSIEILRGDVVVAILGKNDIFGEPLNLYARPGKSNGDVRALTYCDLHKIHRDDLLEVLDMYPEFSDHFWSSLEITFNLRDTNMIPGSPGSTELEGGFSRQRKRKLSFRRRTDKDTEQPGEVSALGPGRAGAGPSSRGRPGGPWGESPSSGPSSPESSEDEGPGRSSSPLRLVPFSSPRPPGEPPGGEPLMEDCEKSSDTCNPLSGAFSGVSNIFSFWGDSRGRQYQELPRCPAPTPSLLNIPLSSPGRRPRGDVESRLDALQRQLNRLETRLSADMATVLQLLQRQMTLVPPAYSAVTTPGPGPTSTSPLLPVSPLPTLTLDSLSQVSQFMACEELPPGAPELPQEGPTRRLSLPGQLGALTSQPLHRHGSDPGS
Sequence of cGMP-inhibited 3',5'-cyclic phosphodiesterase 3B (Homo sapiens) (Q13370 whole entry, looked up): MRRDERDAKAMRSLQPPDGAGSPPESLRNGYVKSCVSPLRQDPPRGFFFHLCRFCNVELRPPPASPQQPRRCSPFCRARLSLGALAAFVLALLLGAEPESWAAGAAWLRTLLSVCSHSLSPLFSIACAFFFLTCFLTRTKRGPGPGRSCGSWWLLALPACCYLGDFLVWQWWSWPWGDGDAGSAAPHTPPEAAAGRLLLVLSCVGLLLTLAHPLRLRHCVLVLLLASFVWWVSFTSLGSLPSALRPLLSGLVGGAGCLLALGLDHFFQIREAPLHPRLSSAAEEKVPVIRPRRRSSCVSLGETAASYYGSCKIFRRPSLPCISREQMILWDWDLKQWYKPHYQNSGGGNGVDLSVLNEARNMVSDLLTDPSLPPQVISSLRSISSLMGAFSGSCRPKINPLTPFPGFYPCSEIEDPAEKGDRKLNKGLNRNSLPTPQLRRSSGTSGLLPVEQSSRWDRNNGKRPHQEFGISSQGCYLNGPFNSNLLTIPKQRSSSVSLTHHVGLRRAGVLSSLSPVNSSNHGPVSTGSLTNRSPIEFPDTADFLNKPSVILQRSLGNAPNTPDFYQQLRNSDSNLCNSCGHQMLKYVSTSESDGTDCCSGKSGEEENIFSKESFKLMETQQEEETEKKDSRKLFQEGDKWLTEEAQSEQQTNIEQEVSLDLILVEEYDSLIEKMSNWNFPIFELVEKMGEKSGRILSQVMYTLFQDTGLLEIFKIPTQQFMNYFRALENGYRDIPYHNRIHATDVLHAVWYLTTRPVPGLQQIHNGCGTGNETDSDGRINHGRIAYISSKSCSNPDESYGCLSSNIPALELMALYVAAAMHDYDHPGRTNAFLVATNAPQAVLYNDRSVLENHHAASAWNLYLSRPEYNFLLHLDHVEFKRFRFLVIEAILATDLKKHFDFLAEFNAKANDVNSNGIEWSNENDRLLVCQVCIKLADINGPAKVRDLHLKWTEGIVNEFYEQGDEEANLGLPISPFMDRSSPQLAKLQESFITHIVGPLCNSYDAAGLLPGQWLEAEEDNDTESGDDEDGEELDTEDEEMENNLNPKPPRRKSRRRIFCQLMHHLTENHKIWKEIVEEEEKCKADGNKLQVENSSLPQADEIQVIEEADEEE
Sequence of Histamine H1 receptor (Homo sapiens) (P35367 whole entry): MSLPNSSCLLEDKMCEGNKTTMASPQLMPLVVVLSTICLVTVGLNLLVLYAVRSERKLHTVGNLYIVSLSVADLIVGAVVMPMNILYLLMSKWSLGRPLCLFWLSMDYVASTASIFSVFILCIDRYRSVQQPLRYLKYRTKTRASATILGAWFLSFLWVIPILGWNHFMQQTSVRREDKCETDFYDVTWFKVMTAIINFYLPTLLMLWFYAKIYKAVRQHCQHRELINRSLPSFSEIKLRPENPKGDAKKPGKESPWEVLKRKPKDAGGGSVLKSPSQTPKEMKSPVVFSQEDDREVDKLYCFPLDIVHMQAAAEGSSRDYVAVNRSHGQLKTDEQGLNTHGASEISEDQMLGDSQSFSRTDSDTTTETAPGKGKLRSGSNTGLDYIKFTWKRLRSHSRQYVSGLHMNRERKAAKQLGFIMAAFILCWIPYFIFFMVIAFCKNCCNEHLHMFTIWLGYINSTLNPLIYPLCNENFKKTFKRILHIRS

COc1ncc(C)cc1CC[C@@](O)(CC(=O)O)C(=O)O
IC50 ([1]; read-out: IC50): 14.1 µM
IC50 ([1]; read-out: pIC50 (converted)): 10 µM
CL renal [2]: 4.4 mL/min/kg
Activity (Rattus norvegicus): Active
Activity (Mus musculus): Active
inhibition [3]: inactive
inhibition (INH) [4]: Not Active
inhibition [5]: inactive
inhibition [6]: inactive
